Data set [1] relates to Canis familiaris. Nature of the data set: Coronary vasodilatory activity as increase in coronary flow was determined in dogs after 0.1 mg/kg i.v. administration of the compound. It counts as functional, Canis lupus familiaris. The conditions noted are these: route intravenous.
The subject of data set [2] is Canis familiaris. Nature of the data set: Coronary vasodilatory activity as increase in coronary flow was determined in dogs after 0.1 mg/kg i.v. administration of the compound; (SE +/- 3.3). It counts as functional, Canis lupus familiaris. The conditions noted are these: route intravenous.
Data set [3] relates to Canis familiaris. The data set is described as follows: Coronary vasodilatory activity as increase in coronary blood flow was determined in dogs after i.v. administration of the compound. The format is functional, Canis lupus familiaris, Artery.
For data set [4], the system named is Canis familiaris. Nature of the data set: Ability to increase coronary blood flow after intra duodenal administration at 3 mg/kg in dog; (SE +/- 23). It counts as functional, Canis lupus familiaris, Blood/Heart. The settings on record: route intraduodenal.
Data set [5] is filed under the species Cavia porcellus. Nature of the data set: Calcium antagonistic activity in isolated guinea pig Tenia coli specimens; (SE +/- 0.06). It counts as functional. The settings on record: read-out: pA2 (converted).
Data set [6] is described as follows: Lethal effect after per os administration in mouse for 7 days. The format is toxicity. The conditions noted are these: in vivo, po.
Data set [7] relates to Canis familiaris. The data set is described as follows: Coronary vasodilatory activity as increase in coronary flow was determined in dogs after 0.1 mg/kg i.v. administration of the compound; (SE +/- 12.9). The format is functional, Canis lupus familiaris. The conditions noted are these: route intravenous.
A short description of data set [8]: Partition coefficient (logP). The format is physicochemical. The conditions noted are these: octanol/water.
Data set [9] has as its system Canis familiaris. The data set is described as follows: Ability to increase coronary blood flow after intra duodenal administration at 3 mg/kg in dog; (SE +/- 24). It counts as functional, Canis lupus familiaris. The conditions noted are these: route intraduodenal.
In data set [10] the test system is Canis familiaris. Nature of the data set: Coronary vasodilatory activity as increase in coronary flow was determined in dogs after 0.1 mg/kg i.v. administration of the compound; (SE +/- 9). The conditions noted are these: route intravenous. The format is functional, Canis lupus familiaris.
The species entered for data set [11] is Cavia porcellus. Nature of the data set: Calcium antagonistic activity in isolated guinea pig Tenia coli specimens; (SE +/- 0.10). It counts as functional. The conditions noted are these: read-out: pA2 (converted).
Data set [12] deals with Canis familiaris. The data set is described as follows: Coronary vasodilatory activity as increase in coronary flow was determined in dogs after 0.1 mg/kg i.v. administration of the compound; (SE +/- 6.6). It counts as functional, Canis lupus familiaris. The settings on record: route intravenous.
For data set [13], the system named is Canis familiaris. The data set is described as follows: Coronary vasodilatory activity as increase in coronary flow was determined in dogs after 0.1 mg/kg i.v. administration of the compound; (SE +/- 8.2). It counts as functional, Canis lupus familiaris. The conditions noted are these: route intravenous.
The test system of data set [14] is Canis familiaris. Nature of the data set: Coronary vasodilatory activity as increase in coronary flow was determined in dogs after 0.1 mg/kg i.v. administration of the compound; (SE +/- 27). It counts as functional, Canis lupus familiaris. The settings on record: route intravenous.
For data set [15], the system named is Canis familiaris. The data set is described as follows: Coronary vasodilatory activity as increase in coronary flow was determined in dogs after 0.1 mg/kg i.v. administration of the compound; (SE +/- 22.2). The settings on record: route intravenous. It counts as functional, Canis lupus familiaris.
The species entered for data set [16] is Cavia porcellus. Nature of the data set: Calcium antagonistic activity in isolated guinea pig Tenia coli specimens; (SE +/- 0.13). It counts as functional. The settings on record: read-out: pA2 (converted).
Data set [17] has as its system Canis familiaris. Nature of the data set: Coronary vasodilatory activity as increase in coronary flow was determined in dogs after 0.1 mg/kg i.v. administration of the compound; (SE +/- 9.9). The format is functional, Canis lupus familiaris. The conditions noted are these: route intravenous.
Data set [18] has as its system Canis familiaris. Nature of the data set: Coronary vasodilatory activity as increase in coronary flow was determined in dogs after 0.1 mg/kg i.v. administration of the compound; (SE +/- 7.4). It counts as functional, Canis lupus familiaris. The conditions noted are these: route intravenous.
Data set [19] relates to Canis familiaris. The data set is described as follows: Ability to increase coronary blood flow after intra duodenal administration at 3 mg/kg in dog; (SE +/- 21). It counts as functional, Canis lupus familiaris. The settings on record: route intraduodenal.
For data set [20], the species on record is Cavia porcellus. Nature of the data set: Calcium antagonistic activity in isolated guinea pig Tenia coli specimens; (SE +/- 0.11). The format is functional. The conditions noted are these: read-out: pA2 (converted).
The test system of data set [21] is Canis familiaris. Nature of the data set: Ability to increase coronary blood flow after intra duodenal administration at 3 mg/kg in dog; (SE +/- 27). The format is functional, Canis lupus familiaris. The conditions noted are these: route intraduodenal.
In data set [22] the test system is Canis familiaris. The data set is described as follows: Coronary vasodilatory activity as increase in coronary flow was determined in dogs after 0.1 mg/kg i.v. administration of the compound; (SE +/- 5). The conditions noted are these: route intravenous. It counts as functional, Canis lupus familiaris.
Data set [23] is filed under the species Cavia porcellus. The data set is described as follows: Calcium antagonistic activity in isolated guinea pig Tenia coli specimens; (SE +/- 0.08). It counts as functional. The settings on record: read-out: pA2 (converted).
Data set [24] deals with Canis familiaris. The data set is described as follows: Coronary vasodilatory activity as increase in coronary flow was determined in dogs after 0.1 mg/kg i.v. administration of the compound; (SE +/- 0.1). It counts as functional, Canis lupus familiaris. The settings on record: route intravenous.
The test system of data set [25] is Canis familiaris. Nature of the data set: Coronary vasodilatory activity as increase in coronary flow was determined in dogs after 0.1 mg/kg i.v. administration of the compound; (SE +/- 13.1). The settings on record: route intravenous. The format is functional, Canis lupus familiaris.
Data set [26] relates to Canis familiaris. The data set is described as follows: Coronary vasodilatory activity as increase in coronary flow was determined in dogs after 0.1 mg/kg i.v. administration of the compound; IA = Inactive. The format is functional, organism-based. Details: dose 0.1 mg/kg. The conditions noted are these: Canis lupus familiaris; at 0.1 mg/kg.
Data set [27] deals with Canis familiaris. The data set is described as follows: Ability to increase coronary blood flow after intra duodenal administration at 3 mg/kg in dog; (SE +/- 38). The conditions noted are these: route intraduodenal. The format is functional, Canis lupus familiaris.

Activity calls are given as the source filed them. No cut-off for these calls is given here.

One may read the LD50 as the dose expected to kill half of the subjects tested. Read a low LD50 as a more toxic substance. For orientation: logP means the decadic logarithm of the partition coefficient of the neutral form, usually between octanol and water. A higher logP goes with a more lipophilic compound.

Molecule `CCOP(=O)(Cc1ccc(-c2nc3ccccc3s2)cc1)N1CCN(C)CC1` (stereo not drawn) returned a Max increase in [1] of 49.3%. In data set [2], `CCOP(=O)(Cc1ccc(-c2nc3ccccc3s2)cc1)N1CCN(Cc2ccc(OC)c(OC)c2OC)CC1.O=C(O)/C=C/C(=O)O` (stereo not drawn) came in with a Max increase of 103.5%. As for `CCOP(=O)(Cc1ccc(-c2nc3ccccc3s2)cc1)NC(C)C` (stereo not drawn), in [1], the Max increase is on record as 73.2%. As for `COc1ccc([C@@H]2Sc3ccccc3N(CCN(C)C)C(=O)[C@@H]2OC(C)=O)cc1.Cl` [DILTIAZEM HYDROCHLORIDE], the CBF-ID75 in data set [3] was found to be 0.0771 mg/kg. Also, the “Change in blood flow” value in [4] is given as 52%. In [5], the Kb was 50.1 nM. In data set [6], this molecule returned an LD50 at 168 h of 508 mg/kg.

`CCOP(=O)(Cc1ccc(-c2nc3ccccc3s2)cc1)N1CCCCCC1` (stereo not drawn): the Max increase in [1] was found to be 49.3%. The same measure, in the same setting: with `CCNP(=O)(Cc1ccc(-c2nc3ccccc3s2)cc1)OCC` (stereo not drawn) the figure was 31.2%. Regarding `CCOP(=O)(Cc1ccc(-c2nc3ccccc3s2)cc1)N1CCN(CC)C(=O)C1=O` (stereo not drawn), the Max increase in data set [7] stood at 51.8%.

For `CCOP(=O)(Cc1ccc(-c2nc3ccccc3s2)cc1)N1CCCC1=O` (stereo not drawn), the logP in data set [8] came out at 3. Also, the CBF-ID75 in [3] worked out at 0.0414 mg/kg. Moreover, in [9], the “Change in blood flow” value was 104%. The Max increase in [10] is recorded as 124.1%. In addition, the Kb in data set [11] is 29.5 nM. In data set [6], this molecule gave an LD50 at 168 h of 2110 mg/kg.

`CCOP(=O)(Cc1ccc(-c2nc3ccccc3s2)cc1)N1CCCCC1=S` (stereo not drawn) returned a Max increase in data set [12] of 24.7%.

`Cc1ccc(-c2nc3ccccc3s2)cc1`: the logP in data set [8] was found to be 3.7. For `CCOP(=O)(Cc1ccc(-c2nc3ccccc3s2)cc1)N1CCCCC1` (stereo not drawn), in data set [13], the Max increase is recorded as 81.3%. For `CCOP(=O)(Cc1ccc(-c2nc3ccccc3s2)cc1)N1CCSC1=O` (stereo not drawn), the CBF-ID75 in [3] worked out at 0.0504 mg/kg. For the same molecule, in data set [14], the Max increase is 155.3%. The molecule also came in with an LD50 at 168 h in [6] of over 1000 mg/kg. In data set [1], `CCOP(=O)(Cc1ccc(-c2nc3ccccc3s2)cc1)N1CC=CC1` (stereo not drawn) registered a Max increase of 80.6%. In the case of `CCOP(=O)(Cc1ccc(-c2nc3ccccc3s2)cc1)N1CCOC1=O` (stereo not drawn), the CBF-ID75 in data set [3] came to 0.0773 mg/kg. The Max increase in data set [15] is reported as 141.4%. Further, in data set [16], the Kb was 25.7 nM. This molecule returned an LD50 at 168 h in data set [6] of 671 mg/kg.

In data set [17], `CCOP(=O)(Cc1ccc(-c2nc3ccccc3s2)cc1)N1CCCCCCC1=O` (stereo not drawn) came in with a Max increase of 70.7%. For the molecule `CCOP(=O)(Cc1ccc(-c2nc3ccccc3s2)cc1)N1CCSC1=S` (stereo not drawn), the Max increase in [18] is listed as 51.8%.

`CCOP(=O)(Cc1ccc(-c2nc3ccccc3s2)cc1)OC` (stereo not drawn) had a logP in [8] of 3.5. Regarding `CCOP(=O)(Cc1ccc(-c2nc3ccccc3s2)cc1)N1CCCCC1=O` (stereo not drawn), in data set [3], the CBF-ID75 came out at 0.0552 mg/kg. Further, the “Change in blood flow” value in data set [19] is given as 40%. The molecule also returned a Max increase in data set [18] of 101.9%. For the same molecule, in data set [20], the Kb is 35.5 nM. In [6], this molecule registered an LD50 at 168 h of over 1000 mg/kg. For `CCOP(=O)(Cc1ccc(-c2nc3ccccc3s2)cc1)OCC` [FOSTEDIL], the CBF-ID75 in data set [3] turned out to be 0.116 mg/kg. In addition, the “Change in blood flow” value in data set [21] came to 92%. This molecule registered a Max increase in data set [22] of 82.2%. Also, the Kb in data set [23] was 61.7 nM. In data set [6], the LD50 at 168 h amounted to 1190 mg/kg. `CCOC(=O)Cc1ccc(-c2nc3ccccc3s2)cc1`: in data set [8], the logP was found to be 3.2. As to `CCOP(=O)(Cc1ccc(-c2nc3ccccc3s2)cc1)N(CC)CC` (stereo not drawn), the Max increase in data set [24] stood at 79.7%.

For the molecule `CCOP(=O)(Cc1ccc(-c2nc3ccccc3s2)cc1)N1CCOCC1` (stereo not drawn), the Max increase in data set [1] was determined as 69%. Still for that read-out and setting: with `CCOP(=O)(Cc1ccc(-c2nc3ccccc3s2)cc1)NC1CC1` (stereo not drawn) the figure was 41.1%. The molecule `CCOP(=O)(Cc1ccc(-c2nc3ccccc3s2)cc1)N1CCCC1` (stereo not drawn) came in with a Max increase in [25] of 101.1%. As for `CCOP(=O)(Cc1ccc(-c2nc3ccccc3s2)cc1)NCc1ccccc1` (stereo not drawn), the Max increase entry in data set [26] is “inactive”. As for `CCOP(=O)(Cc1ccc(-c2nc3ccccc3s2)cc1)N1CCCCCC1=O` (stereo not drawn), the CBF-ID75 in [3] stood at 0.055 mg/kg. Further, in [27], the “Change in blood flow” value is 69%. This molecule also showed a Max increase in data set [10] of 102.8%. In data set [11], the Kb is 34.7 nM. Also, the 50% lethal dose (LD50) at 168 h in data set [6] is over 1000 mg/kg. Molecule `CCOP(=O)(Cc1ccc(-c2nc3ccccc3s2)cc1)NCCCl` (stereo not drawn) yielded a Max increase in data set [1] of 31.2%. In the case of `CCOP(=O)(Cc1ccc(-c2nc3ccccc3s2)cc1)N1CCCC1=S` (stereo not drawn), the Max increase in [18] came to 64.9%.

The values above are taken from ChEMBL document CHEMBL1124876, “Organic phosphorus compounds. 5. (4-Benzothiazol-2-ylbenzyl)amidophosphonate as potent calcium antagonistic vasodilators” (J Med Chem, 1990).
